PMC12266748, “A Xanthine Derivative With Novel Heat Shock Protein 90‐Alpha Inhibitory and Senolytic Properties” (Aging Cell, 2025)
Like-named read-outs stand apart in the source and are kept apart here.

How the values were obtained:
HUVEC = assay: MTT viability of Doxorubicin-induced senescent and non-senescent HUVEC; assay type: cell-based, Human; conditions: for EC50: Homo sapiens
Text: (§1) IMR90 and WI38 lung fibroblasts were purchased from ECACC‐Merck. Human bone marrow (BM)‐derived mesenchymal stromal cells (MSCs) were purchased from Lonza. Human umbilical vein endothelial cells (HUVECs) are primary cells obtained from a pool of donors purchased from Clonetics (Lonza). Murine ear fibroblasts (MearFs) were obtained from C57BL/6J mice maintained in the INRCA “Specific Pathogen Free” (SPF) animal facility. MCF7 breast cancer cells were purchased from ATCC. For dose–response curves, IMR90 and WI38 were induced to senescence through replicative passages; MSCs, HUVECs, and MearFs senescence was induced with Doxorubicin; MCF7 senescence was induced with 4‐Hydroxytamoxifen (Lee et al. [2014]). The EC50 was calculated using GraphPad Prism 10 software. All treatment specifications are reported in the extended section.
(§2) Cell viability was determined using an MTT assay. Absorbance was measured using a NB‐12‐0035 Microplate Reader (NeoBiotech Co.). Data are expressed as a percentage of viability compared with untreated cells.
Human umbilical vein endothelial cells (HUVECs) are primary cells obtained from a pool of donors purchased from Clonetics (Lonza, Stein, Switzerland). HUVECs were cultured in endothelial basal medium (EBM-2, CC-3156, Lonza) supplemented with SingleQuot Bullet Kit (CC-4176, Lonza) containing 0.1% human recombinant epidermal growth factor (rh-EGF), 0.04% hydrocortisone, 0.1% vascular endothelial growth factor (VEGF), 0.4% human recombinant fibroblast growth factor (rh-FGF-B), 0.1% insulin-like growth factor-1 with the substitution of arginine for glutamic acid at position 3 (R3-IGF-1), 0.1% ascorbic acid, 0.1% heparin, 0.1% gentamicin and amphotericin-B (GA-1000), and 2% fetal bovine serum (FBS). The cells were seeded at a density of 5000/cm^2 in T75 flasks (Corning Costar, Sigma Aldrich, St. Louis, MO, USA).
Murine ear fibroblasts (MearFs) were obtained from C57BL/6J mice maintained in the INRCA "Specific Pathogen Free" (SPF) animal facility. The ear biopsies (2 mm radius) were obtained with a dedicated puncher, and cells recovered as previously described (Malavolta et al. 2022). Cells were seeded at a density of 5000/cm^2 in T75 flasks (Corning Costar, Sigma Aldrich, St. Louis, MO, USA) and maintained at 37°C in a 95% humidified incubator with 5% CO2. […]
(§3) Cell viability assay. Cell viability has been determined with MTT (3-(4,5-dimethylthiazol-2-yl)-2, 5-diphenyltetrazolium bromide) assay. […] Insoluble formazan salts produced were solubilized with DMSO incubation, and then absorbance was measured at 540 nm using a microplate reader (NB-12-0035 Microplate Reader, NeoBiotech Co., Seoul, Republic of Korea). Data are expressed as a percentage of viability compared with untreated cells (the control group has been considered 100% of viability).

[1] = tested on: Mouse ear fibroblasts (MearF); assay: MTT viability of Doxorubicin-induced senescent and non-senescent murine ear fibroblasts; assay type: cell-based, C57BL/6J mice; conditions: for EC50: Mus musculus, Fibroblast
Text: as §1, §2
Murine ear fibroblasts (MearFs) were obtained from C57BL/6J mice maintained in the INRCA "Specific Pathogen Free" (SPF) animal facility. The ear biopsies (2 mm radius) were obtained with a dedicated puncher, and cells recovered as previously described (Malavolta et al. 2022). Cells were seeded at a density of 5000/cm^2 in T75 flasks (Corning Costar, Sigma Aldrich, St. Louis, MO, USA) and maintained at 37°C in a 95% humidified incubator with 5% CO2. Culture was carried out in RPMI (Euroclone, Milano, Italy) supplemented with 10% Fetal Calf Serum (FCS, Sigma-Aldrich, St. Louis, MO, USA), 2mM L-Glutamine, 100 U/mL penicillin and […] streptomycin (all from Sigma- Aldrich, St. Louis, MO, USA). At approximately 80% confluence, the cells were detached from the plate by incubation with trypsin-EDTA (Sigma-Aldrich, St. Louis, MO, USA) for 5 min at 37 °C and re-plated. For Doxorubicin-induced senescence, cells were seeded in a 96-well plate at a 5000 cells/cm2 density. MSC cells were treated with 100 nM Doxorubicin (DOX) for 24 h and then maintained with medium for 4 days; HUVECs were treated with 50 nM DOX for 24 h and then maintained with medium for 4 days. MearFs were induced to senescence by continuous exposure (5 days) to 75 nM DOX. […]
as §3

[2] = DNA damage (Doxorubicin), MTT, read-out: EC50 senescent cells
[3] = MTT, read-out: EC50 proliferating cells

SMILES: Cc1ccccc1-n1c(=O)n(Cc2ccccc2)c(=O)c2[nH]cnc21 [Compound K5, 1-benzyl-3-(2-methylphenyl)-7H-purine-2,6-dione]
- Senolytic evidence (no, partly/yes) (HUVEC; DNA damage (Doxorubicin)): No
- EC50 (HUVEC; [2]): > 500 µM
- EC50 (HUVEC; [3]): > 500 µM
- difference in vitality, DOXO-induced senescent vs non-senescent proliferating cells (HUVEC; MTT): no discernible difference
- Senolytic evidence (no, partly/yes) ([1]; DNA damage (Doxorubicin)): No
- difference in vitality, DOXO-induced senescent vs non-senescent proliferating cells ([1]; MTT): no discernible difference
- EC50 [1, 2]: > 500 µM
- EC50 [1, 3]: > 500 µM
